Laboratory results taken from PubChem BioAssay (NCI).
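Compound exposure: 48 hours, 5 concentrations, 96-well plates. The concentration for full growth arrest is given as TGI.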

Experiments:
Assay in all cases: inhibition of tumour cell growth, NCI panel, 48 h
UACC-62 melanoma = system: UACC-62 melanoma
HCT-15 colon = system: HCT-15 colon
CAKI-1 renal = system: CAKI-1 renal
EKVX NSCLC = system: EKVX NSCLC
HL-60(TB) leukemia = system: HL-60(TB) leukemia
OVCAR-5 ovarian = system: OVCAR-5 ovarian
RPMI-8226 leukemia = system: RPMI-8226 leukemia
MALME-3M melanoma = system: MALME-3M melanoma
COLO 205 colon = system: COLO 205 colon
RXF 393 renal = system: RXF 393 renal
SK-MEL-5 melanoma = system: SK-MEL-5 melanoma
IGROV1 ovarian = system: IGROV1 ovarian
SNB-19 CNS = system: SNB-19 CNS
SW-620 colon = system: SW-620 colon
SF-539 CNS = system: SF-539 CNS
A549 NSCLC = system: A549 NSCLC
M14 melanoma = system: M14 melanoma
HCC-2998 colon = system: HCC-2998 colon
NCI-H23 lung = system: NCI-H23 lung
UO-31 renal = system: UO-31 renal
T-47D breast = system: T-47D breast
PC-3 prostate = system: PC-3 prostate
HT29 colon = system: HT29 colon
MCF7 breast = system: MCF7 breast
HS 578T breast = system: HS 578T breast
MOLT-4 leukemia = system: MOLT-4 leukemia
SK-MEL-2 melanoma = system: SK-MEL-2 melanoma
HOP-92 NSCLC = system: HOP-92 NSCLC
A498 renal = system: A498 renal
HOP-62 NSCLC = system: HOP-62 NSCLC
SNB-75 CNS = system: SNB-75 CNS
OVCAR-3 ovarian = system: OVCAR-3 ovarian
OVCAR-4 ovarian = system: OVCAR-4 ovarian
U251 CNS = system: U251 CNS
MDA-N = system: MDA-N
SF-295 CNS = system: SF-295 CNS
NCI-H226 lung = system: NCI-H226 lung
SF-268 CNS = system: SF-268 CNS
SR leukemia = system: SR leukemia
786-0 renal = system: 786-0 renal
SK-OV-3 ovarian = system: SK-OV-3 ovarian
NCI-H460 lung = system: NCI-H460 lung
ACHN renal = system: ACHN renal
MDA-MB-231 breast = system: MDA-MB-231 breast
MDA-MB-435 = system: MDA-MB-435
SK-MEL-28 melanoma = system: SK-MEL-28 melanoma
UACC-257 melanoma = system: UACC-257 melanoma
K-562 leukemia = system: K-562 leukemia
NCI-H522 lung = system: NCI-H522 lung
HCT-116 colon = system: HCT-116 colon
DU-145 prostate = system: DU-145 prostate
OVCAR-8 ovarian = system: OVCAR-8 ovarian
SN12C renal = system: SN12C renal
BT-549 breast = system: BT-549 breast
TK-10 renal = system: TK-10 renal
CCRF-CEM leukemia = system: CCRF-CEM leukemia
KM12 colon = system: KM12 colon
LOX IMVI melanoma = system: LOX IMVI melanoma
NCI/ADR-RES ovarian = system: NCI/ADR-RES ovarian

O=P(Nc1ccccc1)(Oc1ccccc1)N1CCN(c2ccccc2)CC1 (configuration not stated)
TGI (UACC-62 melanoma): 25.8 µM
TGI (HCT-15 colon): 35 µM
TGI (CAKI-1 renal): 58.3 µM
TGI (EKVX NSCLC): 51.1 µM
TGI (HL-60(TB) leukemia): > 100 µM
TGI (OVCAR-5 ovarian): 33.5 µM
TGI (RPMI-8226 leukemia): > 100 µM
TGI (MALME-3M melanoma): 33.4 µM
TGI (COLO 205 colon): 34.9 µM
TGI (RXF 393 renal): 33.9 µM
TGI (SK-MEL-5 melanoma): 33.5 µM
TGI (IGROV1 ovarian): 40.4 µM
TGI (SNB-19 CNS): 32.1 µM
TGI (SW-620 colon): 63.6 µM
TGI (SF-539 CNS): 33.9 µM
TGI (A549 NSCLC): 38.5 µM
TGI (M14 melanoma): 28.6 µM
TGI (HCC-2998 colon): 29.9 µM
TGI (NCI-H23 lung): 36.9 µM
TGI (UO-31 renal): 31 µM
TGI (T-47D breast): 58.5 µM
TGI (PC-3 prostate): 51.7 µM
TGI (HT29 colon): 29.3 µM
TGI (MCF7 breast): 32.1 µM
TGI (HS 578T breast): 40.5 µM
TGI (MOLT-4 leukemia): 52.6 µM
TGI (SK-MEL-2 melanoma): 35.7 µM
TGI (HOP-92 NSCLC): 33.9 µM
TGI (A498 renal): 35.6 µM
TGI (HOP-62 NSCLC): 32.3 µM
TGI (SNB-75 CNS): 30.4 µM
TGI (OVCAR-3 ovarian): 39.7 µM
TGI (OVCAR-4 ovarian): 62.5 µM
TGI (U251 CNS): 30.8 µM
TGI (MDA-N): 31.6 µM
TGI (SF-295 CNS): 33.6 µM
TGI (NCI-H226 lung): 43.9 µM
TGI (SF-268 CNS): 84.1 µM
TGI (SR leukemia): > 100 µM
TGI (786-0 renal): 53.6 µM
TGI (SK-OV-3 ovarian): 33.3 µM
TGI (NCI-H460 lung): 33.3 µM
TGI (ACHN renal): 53.9 µM
TGI (MDA-MB-231 breast): 28.9 µM
TGI (MDA-MB-435): 51.5 µM
TGI (SK-MEL-28 melanoma): 35.2 µM
TGI (UACC-257 melanoma): 36.7 µM
TGI (K-562 leukemia): > 100 µM
TGI (NCI-H522 lung): 19.7 µM
TGI (HCT-116 colon): 32.8 µM
TGI (DU-145 prostate): 49.4 µM
TGI (OVCAR-8 ovarian): 49.8 µM
TGI (SN12C renal): 36 µM
TGI (BT-549 breast): 29.5 µM
TGI (TK-10 renal): 52.2 µM
TGI (CCRF-CEM leukemia): > 100 µM
TGI (KM12 colon): 33.5 µM
TGI (LOX IMVI melanoma): 33.5 µM
TGI (NCI/ADR-RES ovarian): 39 µM

CCCOc1cc2c(cc1O)CC[C@@H]1[C@@H]2CC[C@]2(C)[C@@H](O)CC[C@@H]12
TGI (UACC-62 melanoma): 30.8 µM
TGI (HCT-15 colon): > 35.3 µM
TGI (CAKI-1 renal): 23.5 µM
TGI (EKVX NSCLC): > 57.7 µM
TGI (HL-60(TB) leukemia): 18.9 µM
TGI (OVCAR-5 ovarian): > 65.4 µM
TGI (RPMI-8226 leukemia): 23.7 µM
TGI (MALME-3M melanoma): > 100 µM
TGI (COLO 205 colon): 30 µM
TGI (RXF 393 renal): 10.4 µM
TGI (SK-MEL-5 melanoma): 12.1 µM
TGI (IGROV1 ovarian): > 100 µM
TGI (SNB-19 CNS): > 100 µM
TGI (SW-620 colon): > 35.5 µM
TGI (SF-539 CNS): 4.44 µM
TGI (A549 NSCLC): > 56.3 µM
TGI (M14 melanoma): 36.8 µM
TGI (HCC-2998 colon): 17.6 µM
TGI (NCI-H23 lung): > 55.5 µM
TGI (UO-31 renal): > 57.2 µM
TGI (T-47D breast): > 45 µM
TGI (PC-3 prostate): > 51.6 µM
TGI (HT29 colon): 25.9 µM
TGI (MCF7 breast): 37.2 µM
TGI (HS 578T breast): 11.3 µM
TGI (MOLT-4 leukemia): 14.2 µM
TGI (SK-MEL-2 melanoma): 11.3 µM
TGI (HOP-92 NSCLC): > 60.4 µM
TGI (A498 renal): 20.7 µM
TGI (HOP-62 NSCLC): 14.1 µM
TGI (SNB-75 CNS): 32.4 µM
TGI (OVCAR-3 ovarian): > 46.2 µM
TGI (OVCAR-4 ovarian): > 65.5 µM
TGI (U251 CNS): 34.2 µM
TGI (MDA-N): 2.14 µM
TGI (SF-295 CNS): 14.7 µM
TGI (NCI-H226 lung): 55 µM
TGI (SF-268 CNS): > 59.7 µM
TGI (SR leukemia): 16.7 µM
TGI (786-0 renal): 30.5 µM
TGI (SK-OV-3 ovarian): 50.5 µM
TGI (NCI-H460 lung): 26.5 µM
TGI (ACHN renal): > 56.2 µM
TGI (MDA-MB-231 breast): 27.7 µM
TGI (MDA-MB-435): 5.91 µM
TGI (SK-MEL-28 melanoma): > 50.4 µM
TGI (UACC-257 melanoma): > 58.7 µM
TGI (K-562 leukemia): 5.33 µM
TGI (NCI-H522 lung): 3.52 µM
TGI (HCT-116 colon): 42 µM
TGI (DU-145 prostate): 27.2 µM
TGI (OVCAR-8 ovarian): > 59.1 µM
TGI (SN12C renal): 37.8 µM
TGI (BT-549 breast): 20.1 µM
TGI (TK-10 renal): 54.7 µM
TGI (CCRF-CEM leukemia): > 37.4 µM
TGI (KM12 colon): > 55.5 µM
TGI (LOX IMVI melanoma): 34.5 µM
TGI (NCI/ADR-RES ovarian): 39 µM

COc1ccc(/C=C/C(=O)Oc2ccc(/C=C3\CCCCC3=O)cc2)cc1
TGI (UACC-62 melanoma): > 100 µM
TGI (HCT-15 colon): > 100 µM
TGI (CAKI-1 renal): > 100 µM
TGI (EKVX NSCLC): > 100 µM
TGI (HL-60(TB) leukemia): > 83.6 µM
TGI (OVCAR-5 ovarian): > 100 µM
TGI (RPMI-8226 leukemia): 13.9 µM
TGI (MALME-3M melanoma): > 100 µM
TGI (COLO 205 colon): > 93.2 µM
TGI (RXF 393 renal): > 100 µM
TGI (SK-MEL-5 melanoma): > 100 µM
TGI (IGROV1 ovarian): > 100 µM
TGI (SNB-19 CNS): > 100 µM
TGI (SW-620 colon): > 100 µM
TGI (SF-539 CNS): > 100 µM
TGI (A549 NSCLC): > 100 µM
TGI (M14 melanoma): > 100 µM
TGI (HCC-2998 colon): > 72.3 µM
TGI (NCI-H23 lung): > 100 µM
TGI (UO-31 renal): > 100 µM
TGI (T-47D breast): > 100 µM
TGI (PC-3 prostate): > 100 µM
TGI (HT29 colon): 26.3 µM
TGI (MCF7 breast): > 100 µM
TGI (HS 578T breast): > 100 µM
TGI (MOLT-4 leukemia): 7.51 µM
TGI (SK-MEL-2 melanoma): > 100 µM
TGI (HOP-92 NSCLC): > 100 µM
TGI (A498 renal): > 100 µM
TGI (HOP-62 NSCLC): > 77.3 µM
TGI (SNB-75 CNS): > 100 µM
TGI (OVCAR-3 ovarian): > 100 µM
TGI (OVCAR-4 ovarian): > 90.2 µM
TGI (U251 CNS): > 100 µM
TGI (MDA-N): > 100 µM
TGI (SF-295 CNS): 49.4 µM
TGI (NCI-H226 lung): > 100 µM
TGI (SF-268 CNS): > 69.5 µM
TGI (SR leukemia): > 100 µM
TGI (786-0 renal): > 100 µM
TGI (SK-OV-3 ovarian): > 100 µM
TGI (NCI-H460 lung): > 100 µM
TGI (ACHN renal): > 100 µM
TGI (MDA-MB-231 breast): > 83.9 µM
TGI (MDA-MB-435): > 100 µM
TGI (SK-MEL-28 melanoma): > 100 µM
TGI (UACC-257 melanoma): > 100 µM
TGI (K-562 leukemia): > 100 µM
TGI (NCI-H522 lung): > 100 µM
TGI (HCT-116 colon): > 95.4 µM
TGI (DU-145 prostate): > 100 µM
TGI (OVCAR-8 ovarian): > 100 µM
TGI (SN12C renal): > 100 µM
TGI (BT-549 breast): > 100 µM
TGI (TK-10 renal): > 100 µM
TGI (CCRF-CEM leukemia): 6.77 µM
TGI (KM12 colon): > 100 µM
TGI (LOX IMVI melanoma): > 100 µM
TGI (NCI/ADR-RES ovarian): > 100 µM
